Common to all, as to type: functional
The subject of assay [1] is Staphylococcus aureus. As to the kind of experiment: Antibacterial activity against Staphylococcus aureus ATCC 29213.
Assay [2] deals with Staphylococcus aureus. As to the kind of experiment: Antibacterial activity against macrolide resistant Staphylococcus aureus ATCC BAA-39.
For assay [3], the system named is Haemophilus influenzae. As to the kind of experiment: Antibacterial activity against Haemophilus influenzae ATCC 49766.
Assay [4] has as its system Streptococcus pneumoniae. Put plainly: Antibacterial activity against macrolide resistant Streptococcus pneumoniae ATCC 700676.
Assay [5] relates to Staphylococcus aureus. Put plainly: Antibacterial activity against macrolide resistant Staphylococcus aureus ATCC 141541.
Assay [6] has as its system Streptococcus pneumoniae. Put plainly: Antibacterial activity against Streptococcus pneumoniae ATCC 6301.
Assay [7] concerns Enterococcus faecalis. As to the kind of experiment: Antibacterial activity against Enterococcus faecalis ATCC 51575.
Assay [8] concerns Streptococcus pneumoniae. Put plainly: Antibacterial activity against Streptococcus pneumoniae ATCC 49619.
Assay [9] relates to Staphylococcus aureus. As to the kind of experiment: Antibacterial activity against macrolide resistant Staphylococcus aureus ATCC BAA-44.
The subject of assay [10] is Streptococcus pneumoniae. Put plainly: Antibacterial activity against macrolide resistant Streptococcus pneumoniae ATCC 700677.
For assay [11], the system named is Haemophilus influenzae. As to the kind of experiment: Antibacterial activity against Haemophilus influenzae ATCC 9006.
For assay [12], the system named is Streptococcus pneumoniae. As to the kind of experiment: Antibacterial activity against macrolide resistant Streptococcus pneumoniae ATCC 700906.
Assay [13] relates to Staphylococcus aureus. Put plainly: Antibacterial activity against Staphylococcus aureus ATCC 6538p.
In assay [14] the test system is Streptococcus pneumoniae. As to the kind of experiment: Antibacterial activity against Streptococcus pneumoniae ATCC 700671.
The test system of assay [15] is Staphylococcus aureus. Put plainly: Antibacterial activity against macrolide resistant Staphylococcus aureus ATCC 33591.
Assay [16] relates to Staphylococcus epidermidis. Put plainly: Antibacterial activity against Staphylococcus epidermidis ATCC 12228.
Assay [17] has as its system Streptococcus pneumoniae. Put plainly: Antibacterial activity against macrolide resistant Streptococcus pneumoniae ATCC 700905.
In assay [18] the test system is Haemophilus influenzae. As to the kind of experiment: Antibacterial activity against Haemophilus influenzae EH002.
In assay [19] the test system is Haemophilus influenzae. As to the kind of experiment: Antibacterial activity against Haemophilus influenzae EH001.
The subject of assay [20] is Haemophilus influenzae. As to the kind of experiment: Antibacterial activity against Haemophilus influenzae EH003.

Converted amounts (≈) assume the structure as drawn.

As to `CC[C@H]1OC(=O)C[C@@H](O)[C@H](C)[C@@H](O[C@@H]2O[C@H](C)[C@@H](O)[C@H](N(C)C)[C@H]2O)[C@@H](CC=O)C[C@@H](C)C(=N/OCCCCc2cnc3ccccc3c2)/C=C/C(C)=C/C1CO` (some centres undefined), the MIC was 0.2 µg/mL (≈ 0.251 µM) in assay [1]; > 12.5 µg/mL in assay [2]; 6.25 µg/mL (≈ 7.85 µM) in assay [3]; 0.025 µg/mL (≈ 0.0314 µM) in assay [4]; 0.2 µg/mL (≈ 0.251 µM) in [5]; 0.025 µg/mL (≈ 0.0314 µM) in assay [6]. Also, the MIC in assay [7] was > 12.5 µg/mL; in assay [8] it was 0.049 µg/mL (≈ 0.0616 µM); in assay [9] it was > 12.5 µg/mL; in assay [10], 0.025 µg/mL (≈ 0.0314 µM); in [11] it was 6.25 µg/mL (≈ 7.85 µM); in assay [12] it was > 12.5 µg/mL. For the same compound, the MIC was 0.025 µg/mL (≈ 0.0314 µM) in assay [13]; 0.025 µg/mL (≈ 0.0314 µM) in assay [14]; > 12.5 µg/mL in [15]; 0.2 µg/mL (≈ 0.251 µM) in assay [16]; 0.025 µg/mL (≈ 0.0314 µM) in [17].

Take `CC[C@H]1OC(=O)C[C@@H](O)[C@H](C)[C@@H](O[C@@H]2O[C@H](C)[C@@H](O)[C@H](N(C)C)[C@H]2O)[C@@H](CCN2CC(C)CC(C)C2)C[C@@H](C)C(=N/OCCCc2ccc3ncccc3c2)/C=C/C(C)=C/C1CO` (some centres undefined): the MIC in assay [18] is 3.12 µg/mL (≈ 3.55 µM); in assay [19], 3.12 µg/mL (≈ 3.55 µM); in assay [20] it was 1.56 µg/mL (≈ 1.77 µM); in assay [3] it was 3.12 µg/mL (≈ 3.55 µM); in [4], 0.025 µg/mL (≈ 0.0284 µM); in [6] it was 0.025 µg/mL (≈ 0.0284 µM). In addition, the MIC is 0.025 µg/mL (≈ 0.0284 µM) in [8]; > 12.5 µg/mL in assay [10]; 1.56 µg/mL (≈ 1.77 µM) in assay [11]; > 12.5 µg/mL in assay [12]; 0.049 µg/mL (≈ 0.0557 µM) in assay [14]; 0.025 µg/mL (≈ 0.0284 µM) in assay [17].

Consider `CC[C@H]1OC(=O)C[C@@H](O)[C@H](C)[C@@H](O[C@@H]2O[C@H](C)[C@@H](O)[C@H](N(C)C)[C@H]2O)[C@@H](C=O)C[C@@H](C)C(=N\OCCCc2ccc3ncccc3c2)/C=C/C(C)=C/C1CO` (some centres undefined), for which the MIC stood at 6.25 µg/mL (≈ 8.14 µM) in [18]; 3.12 µg/mL (≈ 4.06 µM) in assay [19]; 3.12 µg/mL (≈ 4.06 µM) in assay [20]; 3.12 µg/mL (≈ 4.06 µM) in [3]; 0.025 µg/mL (≈ 0.0326 µM) in assay [4]; 0.025 µg/mL (≈ 0.0326 µM) in assay [6]. For the same compound, the MIC in [8] was 0.025 µg/mL (≈ 0.0326 µM); in [10], > 12.5 µg/mL; in [11] it was 1.56 µg/mL (≈ 2.03 µM); in assay [12], > 12.5 µg/mL; in [14], 0.098 µg/mL (≈ 0.128 µM); in assay [17], 0.025 µg/mL (≈ 0.0326 µM).

For the compound `CC[C@H]1OC(=O)C[C@@H](O)[C@H](C)[C@@H](O[C@@H]2O[C@H](C)[C@@H](O)[C@H](N(C)C)[C@H]2O)[C@@H](CC=O)C[C@@H](C)C(=N\OCCCOc2ccc3ncccc3c2)/C=C/C(C)=C/C1CO` (some centres undefined), the MIC was 0.098 µg/mL (≈ 0.123 µM) in [1]; > 12.5 µg/mL in assay [2]; 6.25 µg/mL (≈ 7.83 µM) in [3]; 0.025 µg/mL (≈ 0.0313 µM) in assay [4]; 0.2 µg/mL (≈ 0.251 µM) in [5]; 0.025 µg/mL (≈ 0.0313 µM) in [6]. Further, the MIC in assay [7] is > 12.5 µg/mL; in assay [8], 0.01 µg/mL (≈ 0.0125 µM); in [9], > 12.5 µg/mL; in [10], 0.2 µg/mL (≈ 0.251 µM); in [11] it was 6.25 µg/mL (≈ 7.83 µM); in [12] it was > 12.5 µg/mL. In addition, the MIC in [13] was 0.025 µg/mL (≈ 0.0313 µM); in assay [14], 0.025 µg/mL (≈ 0.0313 µM); in assay [15], > 12.5 µg/mL; in [16] it was 0.098 µg/mL (≈ 0.123 µM); in [17], 0.025 µg/mL (≈ 0.0313 µM).

Take `CC[C@H]1OC(=O)C[C@@H](O)[C@H](C)[C@@H](O[C@@H]2O[C@H](C)[C@@H](O)[C@H](N(C)C)[C@H]2O)[C@@H](CC=O)C[C@@H](C)C(=O)/C=C/C(C)=C/C1CO` (some centres undefined): the MIC in assay [1] was 0.78 µg/mL (≈ 1.3 µM); in assay [18], 6.25 µg/mL (≈ 10.5 µM); in [19], 3.12 µg/mL (≈ 5.22 µM); in assay [20], 1.56 µg/mL (≈ 2.61 µM); in [2], > 12.5 µg/mL; in assay [3], 1.56 µg/mL (≈ 2.61 µM). For the same compound, the MIC in assay [4] was 0.78 µg/mL (≈ 1.3 µM); in [5], 1.56 µg/mL (≈ 2.61 µM); in [6] it was 0.025 µg/mL (≈ 0.0418 µM); in [7], > 12.5 µg/mL; in [8], 0.098 µg/mL (≈ 0.164 µM); in assay [9] it was > 12.5 µg/mL. The MIC was 6.25 µg/mL (≈ 10.5 µM) in assay [10]; 1.56 µg/mL (≈ 2.61 µM) in [11]; > 12.5 µg/mL in [12]; 0.39 µg/mL (≈ 0.652 µM) in [13]; 0.049 µg/mL (≈ 0.082 µM) in assay [14]; > 12.5 µg/mL in assay [15]. For the same compound, the MIC in assay [16] amounted to 0.39 µg/mL (≈ 0.652 µM); in assay [17], 0.78 µg/mL (≈ 1.3 µM).

Turning to `CC[C@H]1OC(=O)[C@H](C)[C@@H](O[C@H]2C[C@@](C)(OC)[C@@H](O)[C@H](C)O2)[C@H](C)[C@@H](O[C@@H]2O[C@H](C)C[C@H](N(C)C)[C@H]2O)[C@](C)(O)C[C@@H](C)C(=O)[C@H](C)[C@@H](O)[C@]1(C)O` [ERYTHROMYCIN], the MIC is 0.2 µg/mL (≈ 0.273 µM) in [1]; 6.25 µg/mL (≈ 8.52 µM) in assay [18]; 3.12 µg/mL (≈ 4.25 µM) in assay [19]; 3.12 µg/mL (≈ 4.25 µM) in assay [20]; > 12.5 µg/mL in [2]; 6.25 µg/mL (≈ 8.52 µM) in assay [3]. The MIC in [4] was 6.25 µg/mL (≈ 8.52 µM); in [6], 0.025 µg/mL (≈ 0.0341 µM); in assay [7] it was > 12.5 µg/mL; in [8], 0.049 µg/mL (≈ 0.0668 µM); in assay [9] it was > 12.5 µg/mL; in assay [10], 6.25 µg/mL (≈ 8.52 µM). For the same compound, the MIC in assay [11] is 1.56 µg/mL (≈ 2.13 µM); in [12], > 12.5 µg/mL; in [13], 0.098 µg/mL (≈ 0.134 µM); in [14], 0.049 µg/mL (≈ 0.0668 µM); in [15], > 12.5 µg/mL; in [16], 0.2 µg/mL (≈ 0.273 µM). In addition, the MIC in [17] is 3.12 µg/mL (≈ 4.25 µM).

For the compound `CC[C@H]1OC(=O)[C@H](C)C(=O)[C@H](C)[C@@H](O[C@@H]2O[C@H](C)C[C@H](N(C)C)[C@H]2O)[C@](C)(OC)C[C@@H](C)C(=O)[C@H](C)[C@H]2N(CCCCn3cnc(-c4cccnc4)c3)C(=O)O[C@]12C` [TELITHROMYCIN], the MIC in [18] amounted to 6.25 µg/mL (≈ 7.7 µM); in assay [19] it was 1.56 µg/mL (≈ 1.92 µM); in assay [20] it was 1.56 µg/mL (≈ 1.92 µM); in assay [3], 3.12 µg/mL (≈ 3.84 µM); in assay [4], 0.098 µg/mL (≈ 0.121 µM); in assay [6], 0.025 µg/mL (≈ 0.0308 µM). The MIC in assay [8] came to 0.049 µg/mL (≈ 0.0603 µM); in [10], 0.025 µg/mL (≈ 0.0308 µM); in [11], 1.56 µg/mL (≈ 1.92 µM); in [12] it was 0.2 µg/mL (≈ 0.246 µM); in assay [14], 0.025 µg/mL (≈ 0.0308 µM); in assay [17] it was 0.025 µg/mL (≈ 0.0308 µM).

Consider `CC[C@H]1OC(=O)C[C@@H](O)[C@H](C)[C@@H](O[C@@H]2O[C@H](C)[C@@H](O[C@H]3C[C@@](C)(O)[C@@H](O)[C@H](C)O3)[C@H](N(C)C)[C@H]2O)[C@@H](CC=O)C[C@@H](C)C(=O)/C=C/C(C)=C/[C@@H]1CO[C@@H]1O[C@H](C)[C@@H](O)[C@@H](OC)[C@H]1OC` [TYLOSIN], for which the MIC in [1] is 1.56 µg/mL (≈ 1.7 µM); in [2], > 12.5 µg/mL; in assay [4], 0.2 µg/mL (≈ 0.218 µM); in [5] it was 1.56 µg/mL (≈ 1.7 µM); in assay [6], 0.098 µg/mL (≈ 0.107 µM); in assay [7], > 12.5 µg/mL. Moreover, the MIC in assay [8] is 0.098 µg/mL (≈ 0.107 µM); in assay [9], > 12.5 µg/mL; in [10], > 12.5 µg/mL; in assay [12], > 12.5 µg/mL; in assay [13], 0.2 µg/mL (≈ 0.218 µM); in assay [14], 0.2 µg/mL (≈ 0.218 µM). For the same compound, the MIC in [15] is > 12.5 µg/mL; in [16] it was 0.39 µg/mL (≈ 0.426 µM); in assay [17], 0.2 µg/mL (≈ 0.218 µM).

The record behind these values is ChEMBL document CHEMBL1139006, “Synthesis and in vitro antibiotic activity of 16-membered 9-O-arylalkyloxime macrolides” (2006).
